Measurements as given in patent US12090163B2, “Pharmaceutical compositions” (CIPLA LIMITED, priority 2017, dated 2024).
Where a name gives a salt, the structure may show the parent alone.

Legend:
HCV replicon = HCV replicon antiviral evaluation assay; format: cell-based
Protocol: The subgenomic HCV replicons of genotype 1a (H77 strain), 1b (Coni strain), and 2a (JFH-1 strain), which are Huh7 human hepatoma cell lines that contains an HCV replicon were used.
The HCV replicon antiviral evaluation assay examines the effects of compounds at six serial dilutions. Human interferon alpha-2b (rIFNα-2b) and/or Sofosbuvir were included in each run as a positive control compound.
Briefly, the replicon cells were plated at 5,000 cells/well into 96-well plates that were dedicated for the analysis of cell numbers (cytotoxicity) or antiviral activity. On the following day, samples were diluted with assay media and added to the appropriate wells. Cells were processed 72 hours later when the cells were still sub-confluent. For the luciferase endpoint assay, HCV replicon levels were assessed as replicon-derived Luc activity. The concentration of drug that reduces cell viability was assessed by the fluorometric CytoTox-1 cell proliferation assay (Promega), (expressed as cell numbers). For the qRT-PCR/TaqMan assay, total RNA was extracted from the replicon cells using RNeasy 96 kit (Qiagen) according to the manufacturer's protocol. Real-time RTPCR/TaqMan assays was performed to measure copy numbers of the replicon RNA and cellular ribosomal RNA.

HIV-1 isolate JV-1083 = test: In vitro efficacy against HIV-1 in fresh PBMCs (reverse transcriptase activity in supernatant), isolate JV-1083; format: cell-based
Protocol: Fresh human PBMCs, seronegative for HIV and HBV, were isolated from screened donors (Biological Specialty Corporation, Colmar, PA). Cells were pelleted/washed 2-3 times by low speed centrifugation and re-suspension in PBS to remove contaminating platelets. The Leukophoresed blood was then diluted 1:1 with Dulbecco's Phosphate Buffered Saline (DPBS) and layered over 15 mL of Ficoll (GE Healthcare #17-1440-02) in 50 mL centrifuge tube and then centrifuged for 30 minutes at 600×g. Banded PBMCs were gently aspirated from the resulting interface and subsequently washed 2× with PBS by low speed centrifugation. After the final wash, cells were enumerated by tryptan blue exclusion and re-suspended at 1×10^6 cells/mL in RPMI 1640 supplemented with 15% Fetal Bovine Serum (FBS), and 2 mM L-glutamine, 4 μg/mL Phytohemagglutinin (PHA, Sigma). The cells were allowed to incubate for 48-72 hours at 37° C. After incubation, PBMCs were centrifuged and re-suspended in RPMI 1640 with 15% FBS, 2 mM L-glutamine, 100 U/mL penicillin, 100 μg/mL streptomycin, and approximately 100-150 U/mL recombinant human IL-2 (R&D Systems, Inc). IL-2 was included in the culture medium to maintain the cell division initiated by the PHA mitogenic stimulation. PBMCs were maintained in this medium at a concentration of 1-2×10^6 cells/mL with biweekly medium changes until used in the assay protocol. Cells were kept in culture for a maximum of two weeks before being deemed too old for use in assays and discarded. MDMs were depleted from the culture as the result of adherence to the tissue culture flask. […] Pooling (mixing) of mononuclear cells from more than one donor was used to minimize the variability observed between individual donors, which results from quantitative and qualitative differences in HIV infection and overall response to the PHA and IL-2 of primary lymphocyte populations. […]

Question: What does the source list for `C[C@H](Cn1cnc2c(N)ncnc21)OCP(=O)(OCOC(=O)C(C)(C)C)Oc1ccccc1` (stereo partly drawn) [((((((R)-1-(6-amino-9H-purin-9-yl)propan-2-yl)oxy)methyl)(phenoxy)phosphoryl)oxy)methyl pivalate fumarate]?
Answer: Selectivity Index (HCV replicon; CC50/EC50, HCV replicon cells): 5.98; Conclusion: activity against HCV (HCV replicon; HCV replicon assay): active; EC50 (HCV replicon; Hepatitis C virus, concentration inhibiting HCV replicon by 50%, 72 hours, genotype not given): 8.38 µM; Selectivity Index (HIV-1 isolate JV-1083; HIV-1 isolate JV-1083, PBMCs): 11241; EC50 (HIV-1 isolate JV-1083; Human immunodeficiency virus 1, PBMC, HIV-1 isolate JV-1083, PHA-stimulated fresh human PBMCs, six-seven days): 0.00246 µM; Conclusion: activity against HIV-1 (HIV-1 isolate JV-1083; against the two HIV-1 isolates (JV-1083, 89BZ_167) in PBMCs): potently active
